Key:
Test in all cases: KINOMEscan competition binding
[1] = tested on: EGFR (human), P00533 [747-751 del / S ins]; settings: compound 10.0 µM
GAK (human) = GAK (human) (UniProt O14976); settings: compound 10.0 µM
TGFBR2 (human) = TGFBR2 (human) (UniProt P37173); settings: compound 10.0 µM
STK11 (human) = STK11 (human) (UniProt Q15831); settings: compound 10.0 µM
DAPK3 (human) = DAPK3 (human) (UniProt O43293); settings: compound 10.0 µM
PIP4K2B (human) = PIP4K2B (human) (UniProt P78356); settings: compound 10.0 µM
RIOK1 (human) = RIOK1 (human) (UniProt Q9BRS2); settings: compound 10.0 µM
RIOK1 (human), sequence (Q9BRS2 whole entry, looked up): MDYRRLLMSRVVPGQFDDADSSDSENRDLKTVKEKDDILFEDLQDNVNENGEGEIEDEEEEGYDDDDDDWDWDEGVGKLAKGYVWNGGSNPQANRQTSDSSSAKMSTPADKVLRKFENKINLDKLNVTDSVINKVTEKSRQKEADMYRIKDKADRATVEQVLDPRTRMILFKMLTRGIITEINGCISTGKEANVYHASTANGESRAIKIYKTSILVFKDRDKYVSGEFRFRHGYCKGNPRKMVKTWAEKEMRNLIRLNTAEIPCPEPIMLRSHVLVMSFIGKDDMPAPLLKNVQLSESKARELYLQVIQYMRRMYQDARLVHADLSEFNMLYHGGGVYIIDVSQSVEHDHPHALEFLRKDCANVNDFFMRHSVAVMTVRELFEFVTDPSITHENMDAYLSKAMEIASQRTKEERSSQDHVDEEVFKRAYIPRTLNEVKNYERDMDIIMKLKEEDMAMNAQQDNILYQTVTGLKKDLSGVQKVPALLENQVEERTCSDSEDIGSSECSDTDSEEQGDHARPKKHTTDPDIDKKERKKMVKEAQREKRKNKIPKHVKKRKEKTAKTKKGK

MAPK15 (human) = MAPK15 (human) (UniProt Q8TD08); settings: compound 10.0 µM
RIOK3 (human) = RIOK3 (human) (UniProt O14730); settings: compound 10.0 µM
TAOK1 (human) = TAOK1 (human) (UniProt Q7L7X3); settings: compound 10.0 µM
PIM3 (human) = PIM3 (human) (UniProt Q86V86); settings: compound 10.0 µM
SRPK3 (human) = SRPK3 (human) (UniProt Q9UPE1); settings: compound 10.0 µM
SRPK3 (human), sequence (Q9UPE1 whole entry, looked up): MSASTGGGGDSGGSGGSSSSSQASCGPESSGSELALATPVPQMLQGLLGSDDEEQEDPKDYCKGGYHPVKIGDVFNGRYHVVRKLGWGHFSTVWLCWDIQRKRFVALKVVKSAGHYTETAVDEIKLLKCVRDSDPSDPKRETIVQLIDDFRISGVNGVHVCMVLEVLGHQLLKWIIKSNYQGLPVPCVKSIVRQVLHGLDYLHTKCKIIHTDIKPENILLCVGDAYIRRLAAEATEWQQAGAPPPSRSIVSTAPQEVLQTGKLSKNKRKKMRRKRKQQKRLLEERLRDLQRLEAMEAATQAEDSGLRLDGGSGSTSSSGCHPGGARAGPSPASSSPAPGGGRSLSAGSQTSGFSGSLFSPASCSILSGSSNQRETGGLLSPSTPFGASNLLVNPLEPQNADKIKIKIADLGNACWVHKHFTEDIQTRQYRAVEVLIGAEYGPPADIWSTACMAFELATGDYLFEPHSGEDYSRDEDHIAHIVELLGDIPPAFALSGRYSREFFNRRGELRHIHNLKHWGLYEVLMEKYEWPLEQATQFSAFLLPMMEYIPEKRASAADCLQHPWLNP

AURKB (human) = AURKB (human) (UniProt Q96GD4); settings: for kinase still bound, per cent of control: compound 10.0 µM
CLK2 (human) = CLK2 (human) (UniProt P49760); settings: compound 10.0 µM
CLK2 (human), sequence (P49760 whole entry, looked up): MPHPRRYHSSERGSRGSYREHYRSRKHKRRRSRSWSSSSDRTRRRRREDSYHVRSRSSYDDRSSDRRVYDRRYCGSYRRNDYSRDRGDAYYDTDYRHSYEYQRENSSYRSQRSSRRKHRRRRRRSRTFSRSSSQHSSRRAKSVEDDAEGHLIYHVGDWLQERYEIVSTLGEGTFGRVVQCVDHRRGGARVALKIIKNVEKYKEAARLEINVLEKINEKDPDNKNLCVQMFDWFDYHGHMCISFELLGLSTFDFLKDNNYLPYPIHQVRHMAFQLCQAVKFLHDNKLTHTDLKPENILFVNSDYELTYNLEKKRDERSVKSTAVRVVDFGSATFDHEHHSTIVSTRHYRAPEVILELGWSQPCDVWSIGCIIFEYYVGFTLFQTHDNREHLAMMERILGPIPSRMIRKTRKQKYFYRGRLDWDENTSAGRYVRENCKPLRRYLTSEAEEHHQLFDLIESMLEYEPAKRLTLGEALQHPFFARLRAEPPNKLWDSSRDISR

CHUK (human) = CHUK (human) (UniProt O15111); settings: compound 10.0 µM
AURKC (human) = AURKC (human) (UniProt Q9UQB9); settings: compound 10.0 µM
AURKC (human), sequence (Q9UQB9 whole entry, looked up): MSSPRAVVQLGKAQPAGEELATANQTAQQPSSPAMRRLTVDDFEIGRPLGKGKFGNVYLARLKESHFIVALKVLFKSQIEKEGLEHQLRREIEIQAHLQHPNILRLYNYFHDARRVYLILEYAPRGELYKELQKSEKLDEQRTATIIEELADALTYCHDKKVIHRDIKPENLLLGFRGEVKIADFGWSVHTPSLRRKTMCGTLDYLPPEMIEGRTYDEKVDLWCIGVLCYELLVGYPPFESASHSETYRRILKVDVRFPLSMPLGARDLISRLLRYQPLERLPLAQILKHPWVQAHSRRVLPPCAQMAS

DAPK1 (human) = DAPK1 (human) (UniProt P53355); settings: compound 10.0 µM
DMPK (human) = DMPK (human) (UniProt Q09013); settings: compound 10.0 µM
[2] = tested on: EIF2AK4 KD2 (human), Q9P2K8 [S808G]; settings: compound 10.0 µM
CSNK2A1 (human) = CSNK2A1 (human) (UniProt P68400); settings: compound 10.0 µM
TAOK3 (human) = TAOK3 (human) (UniProt Q9H2K8); settings: compound 10.0 µM
PIK3CG (human) = PIK3CG (human) (UniProt P48736); settings: compound 10.0 µM
CLK1 (human) = CLK1 (human) (UniProt P49759); settings: compound 10.0 µM
PHKG2 (human) = PHKG2 (human) (UniProt P15735); settings: compound 10.0 µM
CSNK2A2 (human) = CSNK2A2 (human) (UniProt P19784); settings: compound 10.0 µM
RPS6KA2 KD2 (human) = RPS6KA2 KD2 (human) (UniProt Q15349); settings: compound 10.0 µM
RPS6KA2 KD2 (human), sequence (Q15349 whole entry, looked up): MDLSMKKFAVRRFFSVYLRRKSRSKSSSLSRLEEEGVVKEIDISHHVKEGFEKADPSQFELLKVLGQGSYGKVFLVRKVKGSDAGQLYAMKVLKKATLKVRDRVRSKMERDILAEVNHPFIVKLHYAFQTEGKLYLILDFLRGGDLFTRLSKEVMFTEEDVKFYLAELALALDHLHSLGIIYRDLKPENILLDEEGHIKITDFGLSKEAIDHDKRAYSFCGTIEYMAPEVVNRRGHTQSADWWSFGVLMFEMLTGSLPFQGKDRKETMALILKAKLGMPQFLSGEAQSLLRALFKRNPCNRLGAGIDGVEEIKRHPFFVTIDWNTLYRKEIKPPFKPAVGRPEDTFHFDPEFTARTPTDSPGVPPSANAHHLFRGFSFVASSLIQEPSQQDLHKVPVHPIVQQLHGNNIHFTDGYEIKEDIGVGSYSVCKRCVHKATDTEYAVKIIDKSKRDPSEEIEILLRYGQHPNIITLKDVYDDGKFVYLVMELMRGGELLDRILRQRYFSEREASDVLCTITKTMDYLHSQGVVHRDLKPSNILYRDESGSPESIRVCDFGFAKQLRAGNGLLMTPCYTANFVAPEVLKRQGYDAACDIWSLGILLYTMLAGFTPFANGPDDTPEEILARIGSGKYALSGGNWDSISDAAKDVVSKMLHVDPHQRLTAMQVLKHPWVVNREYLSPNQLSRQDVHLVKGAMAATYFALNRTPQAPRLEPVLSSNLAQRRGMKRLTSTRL

CSNK1E (human) = CSNK1E (human) (UniProt P49674); settings: compound 10.0 µM
[3] = tested on: FLT3 (human), P36888 [D835Y]; settings: compound 10.0 µM
TLK1 (human) = TLK1 (human) (UniProt Q9UKI8); settings: compound 10.0 µM
MAP2K4 (human) = MAP2K4 (human) (UniProt P45985); settings: compound 10.0 µM
TNIK (human) = TNIK (human) (UniProt Q9UKE5); settings: compound 10.0 µM
[4] = tested on: FLT3 (human), P36888 [ITD]; settings: compound 10.0 µM
MAP3K7 (human) = MAP3K7 (human) (UniProt O43318); settings: compound 10.0 µM
TNK1 (human) = TNK1 (human) (UniProt Q13470); settings: compound 10.0 µM
[5] = target: TYK2 JH2 pseudokinase (human) (UniProt P29597); settings: compound 10.0 µM
[6] = tested on: KIT (human), P10721 [V559D/V654A]; settings: compound 10.0 µM
[7] = tested on: FLT3 (human), P36888 [K663Q]; settings: compound 10.0 µM
MKNK2 (human) = MKNK2 (human) (UniProt Q9HBH9); settings: compound 10.0 µM
[8] = tested on: FLT3 (human), P36888 [N841I]; settings: compound 10.0 µM
[9] = tested on: KIT (human), P10721 [V559D]; settings: compound 10.0 µM
GSK3A (human) = GSK3A (human) (UniProt P49840); settings: compound 10.0 µM
ACVR2A (human) = ACVR2A (human) (UniProt P27037); settings: compound 10.0 µM

STK11 (human), sequence (Q15831 whole entry, looked up): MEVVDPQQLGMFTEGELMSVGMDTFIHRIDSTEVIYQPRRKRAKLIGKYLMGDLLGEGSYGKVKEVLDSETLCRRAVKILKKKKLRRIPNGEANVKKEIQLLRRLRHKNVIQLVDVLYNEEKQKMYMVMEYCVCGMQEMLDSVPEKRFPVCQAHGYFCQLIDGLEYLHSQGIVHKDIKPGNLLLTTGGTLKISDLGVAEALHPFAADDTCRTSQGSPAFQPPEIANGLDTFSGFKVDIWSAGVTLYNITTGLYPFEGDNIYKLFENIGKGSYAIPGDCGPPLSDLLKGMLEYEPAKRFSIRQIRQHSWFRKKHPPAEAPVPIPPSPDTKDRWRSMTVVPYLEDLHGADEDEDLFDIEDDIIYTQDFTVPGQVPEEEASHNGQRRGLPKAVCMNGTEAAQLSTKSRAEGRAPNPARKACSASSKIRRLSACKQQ
GAK (human), sequence (O14976 whole entry, looked up): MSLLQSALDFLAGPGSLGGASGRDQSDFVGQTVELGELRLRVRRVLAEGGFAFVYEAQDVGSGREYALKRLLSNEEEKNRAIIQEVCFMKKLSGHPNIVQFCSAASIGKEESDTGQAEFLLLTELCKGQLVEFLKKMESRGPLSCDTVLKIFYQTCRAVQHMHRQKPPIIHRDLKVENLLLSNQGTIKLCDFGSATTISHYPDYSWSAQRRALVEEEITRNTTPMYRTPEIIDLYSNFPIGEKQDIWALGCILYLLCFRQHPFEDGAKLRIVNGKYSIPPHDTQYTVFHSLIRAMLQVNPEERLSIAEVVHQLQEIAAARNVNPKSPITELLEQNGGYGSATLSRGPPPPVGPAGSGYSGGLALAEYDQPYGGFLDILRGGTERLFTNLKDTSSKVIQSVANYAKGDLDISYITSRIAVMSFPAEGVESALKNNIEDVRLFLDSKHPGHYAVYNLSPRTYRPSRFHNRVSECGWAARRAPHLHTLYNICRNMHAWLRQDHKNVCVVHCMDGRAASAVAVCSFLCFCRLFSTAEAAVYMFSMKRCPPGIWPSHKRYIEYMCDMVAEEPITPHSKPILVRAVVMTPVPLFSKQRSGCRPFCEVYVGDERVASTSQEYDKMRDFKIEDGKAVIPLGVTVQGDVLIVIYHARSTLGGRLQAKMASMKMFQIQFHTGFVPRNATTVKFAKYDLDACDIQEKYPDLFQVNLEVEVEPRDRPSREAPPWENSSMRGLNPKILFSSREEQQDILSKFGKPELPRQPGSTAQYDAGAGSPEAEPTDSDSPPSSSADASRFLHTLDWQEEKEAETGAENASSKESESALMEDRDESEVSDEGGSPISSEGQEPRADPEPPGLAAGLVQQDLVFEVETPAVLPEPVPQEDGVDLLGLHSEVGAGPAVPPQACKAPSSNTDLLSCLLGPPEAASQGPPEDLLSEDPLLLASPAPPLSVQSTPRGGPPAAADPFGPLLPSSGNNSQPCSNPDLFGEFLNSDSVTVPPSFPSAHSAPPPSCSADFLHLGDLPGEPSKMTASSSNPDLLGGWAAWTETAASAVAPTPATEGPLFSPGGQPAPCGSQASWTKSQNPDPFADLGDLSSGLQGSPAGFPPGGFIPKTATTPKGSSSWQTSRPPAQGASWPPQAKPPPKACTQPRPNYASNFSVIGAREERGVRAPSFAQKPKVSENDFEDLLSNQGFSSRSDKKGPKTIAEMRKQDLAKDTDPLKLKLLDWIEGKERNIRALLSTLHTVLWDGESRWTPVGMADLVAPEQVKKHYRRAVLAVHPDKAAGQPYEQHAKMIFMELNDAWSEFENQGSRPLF

Compound: Nc1cccc(-c2cc(/C=C3\SC(=O)NC3=O)c[nH]c2=O)c1
- kinase still bound, per cent of control [1]: 4.8%
- kinase still bound, per cent of control (GAK (human)): 9.2%
- kinase still bound, per cent of control (TGFBR2 (human)): 26%
- kinase still bound, per cent of control (STK11 (human)): 19%
- kinase still bound, per cent of control (DAPK3 (human)): 0.6%
- kinase still bound, per cent of control (PIP4K2B (human)): 6.6%
- kinase still bound, per cent of control (RIOK1 (human)): 9.8%
- kinase still bound, per cent of control (MAPK15 (human)): 0.55%
- kinase still bound, per cent of control (RIOK3 (human)): 8.6%
- kinase still bound, per cent of control (TAOK1 (human)): 21%
- kinase still bound, per cent of control (PIM3 (human)): 5.4%
- kinase still bound, per cent of control (SRPK3 (human)): 13%
- kinase still bound, per cent of control (AURKB (human)): 8%
- kinase still bound, per cent of control (CLK2 (human)): 0%
- kinase still bound, per cent of control (CHUK (human)): 30%
- kinase still bound, per cent of control (AURKC (human)): 30%
- kinase still bound, per cent of control (DAPK1 (human)): 2.2%
- kinase still bound, per cent of control (DMPK (human)): 27%
- kinase still bound, per cent of control [2]: 0.6%
- kinase still bound, per cent of control (CSNK2A1 (human)): 17%
- kinase still bound, per cent of control (TAOK3 (human)): 24%
- kinase still bound, per cent of control (PIK3CG (human)): 11%
- kinase still bound, per cent of control (CLK1 (human)): 2.1%
- kinase still bound, per cent of control (PHKG2 (human)): 11%
- kinase still bound, per cent of control (CSNK2A2 (human)): 9.6%
- kinase still bound, per cent of control (RPS6KA2 KD2 (human)): 3.8%
- kinase still bound, per cent of control (CSNK1E (human)): 26%

Compound: O=C1NC(=S)S/C1=C\c1ccc(-c2cncc3ccccc23)o1
- kinase still bound, per cent of control (GAK (human)): 1.3%
- kinase still bound, per cent of control (TGFBR2 (human)): 5.2%
- kinase still bound, per cent of control (STK11 (human)): 17%
- kinase still bound, per cent of control (DAPK3 (human)): 7.4%
- kinase still bound, per cent of control [3]: 1.8%
- kinase still bound, per cent of control (TLK1 (human)): 5.8%
- kinase still bound, per cent of control (PIP4K2B (human)): 5.5%
- kinase still bound, per cent of control (RIOK1 (human)): 3.7%
- kinase still bound, per cent of control (MAP2K4 (human)): 20%
- kinase still bound, per cent of control (TNIK (human)): 11%
- kinase still bound, per cent of control [4]: 6.2%
- kinase still bound, per cent of control (MAPK15 (human)): 9%
- kinase still bound, per cent of control (RIOK3 (human)): 5.5%
- kinase still bound, per cent of control (PIM3 (human)): 2.7%
- kinase still bound, per cent of control (MAP3K7 (human)): 28%
- kinase still bound, per cent of control (SRPK3 (human)): 14%
- kinase still bound, per cent of control (AURKB (human)): 27%
- kinase still bound, per cent of control (CLK2 (human)): 3.1%
- kinase still bound, per cent of control (TNK1 (human)): 8.4%
- kinase still bound, per cent of control (CHUK (human)): 8.4%
- kinase still bound, per cent of control [5]: 5%
- kinase still bound, per cent of control (AURKC (human)): 5.2%
- kinase still bound, per cent of control (DAPK1 (human)): 9.6%
- kinase still bound, per cent of control [6]: 23%
- kinase still bound, per cent of control (CSNK2A1 (human)): 3.2%
- kinase still bound, per cent of control (PIK3CG (human)): 16%
- kinase still bound, per cent of control [7]: 14%
- kinase still bound, per cent of control (CLK1 (human)): 5.6%
- kinase still bound, per cent of control (PHKG2 (human)): 8.1%
- kinase still bound, per cent of control (MKNK2 (human)): 23%
- kinase still bound, per cent of control (CSNK2A2 (human)): 5.6%
- kinase still bound, per cent of control (RPS6KA2 KD2 (human)): 6.2%
- kinase still bound, per cent of control [8]: 4%
- kinase still bound, per cent of control [9]: 26%
- kinase still bound, per cent of control (CSNK1E (human)): 7%

Compound: N=C1NC(=O)/C(=C/c2ccc(-c3cncc4ccccc34)o2)S1
- kinase still bound, per cent of control (GSK3A (human)): 14%
- kinase still bound, per cent of control (GAK (human)): 0.9%
- kinase still bound, per cent of control (TGFBR2 (human)): 0.85%
- kinase still bound, per cent of control (STK11 (human)): 6%
- kinase still bound, per cent of control (DAPK3 (human)): 6.2%
- kinase still bound, per cent of control [3]: 0.45%
- kinase still bound, per cent of control (TLK1 (human)): 28%
- kinase still bound, per cent of control (PIP4K2B (human)): 2.6%
- kinase still bound, per cent of control (RIOK1 (human)): 1.4%
- kinase still bound, per cent of control (TNIK (human)): 8%
- kinase still bound, per cent of control [4]: 1.2%
- kinase still bound, per cent of control (MAPK15 (human)): 10%
- kinase still bound, per cent of control (RIOK3 (human)): 2.2%
- kinase still bound, per cent of control (TAOK1 (human)): 10%
- kinase still bound, per cent of control (PIM3 (human)): 1.6%
- kinase still bound, per cent of control (SRPK3 (human)): 7.2%
- Kd (AURKB (human)): 210 nM
- kinase still bound, per cent of control (AURKB (human)): 0.8%
- kinase still bound, per cent of control (CLK2 (human)): 1.6%
- kinase still bound, per cent of control (TNK1 (human)): 14%
- kinase still bound, per cent of control (CHUK (human)): 1.4%
- kinase still bound, per cent of control (AURKC (human)): 0.3%
- kinase still bound, per cent of control (DAPK1 (human)): 5.9%
- kinase still bound, per cent of control [2]: 0.7%
- kinase still bound, per cent of control [6]: 23%
- kinase still bound, per cent of control (CSNK2A1 (human)): 6.4%
- kinase still bound, per cent of control (TAOK3 (human)): 26%
- kinase still bound, per cent of control [7]: 8.1%
- kinase still bound, per cent of control (CLK1 (human)): 2%
- kinase still bound, per cent of control (PHKG2 (human)): 10%
- kinase still bound, per cent of control (CSNK2A2 (human)): 5.1%
- kinase still bound, per cent of control (RPS6KA2 KD2 (human)): 13%
- kinase still bound, per cent of control [8]: 0.95%
- kinase still bound, per cent of control [9]: 7.2%
- kinase still bound, per cent of control (ACVR2A (human)): 8.6%
- kinase still bound, per cent of control (CSNK1E (human)): 1.4%

Reference: the kinase profiling compilation of Christmann-Franck et al. (2016)
